Columns and labels:
Assay type in all cases: cell-based
[1] = test system: PC-3M-Luc-C6 prostate cells; assay: In Vitro PC-3M-Luc-C6 Prostate Cell Proliferation Assay in Lipid Reduced Medium; settings: 10% lipid reduced serum, 96 h, ATP-glow
Method: PC-3M-Luc-C6 prostate cells were obtained from Xenogen Corporation. […] The cells were passaged twice a week.
The next day 10 μl test compound/DMSO diluted in medium was added (3E-5M, 1E-5M, 3E-6M, 1E-6M, 3E-7M, 1E-7M, 3E-8M, 1E-8M final concentration). Compounds were tested in duplicate. After 96 h incubation at 37° C., 5% CO2 25 μl ATP-glow mix was added. The plate was incubated for 30 min at 37° C. and luminescence was measured with the Envision.
(§1) pIC50 values were calculated as follows. Raw data generated by the instruments were normalized to % Controlmin values, which were calculated as: % Controlmin=100*(x−mLC)/(mHC−mLC),
(§2) where mLC and mHC are the means of the low control wells and high control wells on the plate, after manual exclusion of outliers. The relation between the % Controlmin values and concentration was fitted to a 4-parameter logistic curve using a non-linear least squares regression method to determine the pIC50 value. Outlying data points were excluded manually to get a correct fit. […] The IC50 parameter was always determined by non-linear regression, but one or more of the other parameters may have been held fixed on a relevant input value, such as 0 for the bottom values.

[2] = test system: A2780 ovarian cells; assay: A2780 Ovarian Cell Proliferation Assay in Lipid Reduced Medium, with Palmitate; settings: 10% lipid-reduced serum, 25 μM palmitate, 96 h, MTT
Method: (§3) The biological assays described below correspond to comparative assays for ovarian cell proliferation.
2500 cells were seeded in a 96-well clear well plate in 200 μL RPM11640 with 10% Fetal Calf Serum (Hyclone), and incubated at 37° C., 5% CO2. Blanks were wells without cells. The next day the culture medium was aspirated and replaced by 160 μL culture medium with 10% Lipid-Reduced Serum (LRS, Hyclone). […] After 96 h incubation, an MTT assay was performed.

[3] = test system: LNCaP_Vancouver prostate cells; assay: In Vitro LNCaP Vancouver Prostate Cell Proliferation Assay in Lipid Reduced Medium; settings: 10% lipid reduced serum, 96 h, ATP-glow
Method: LNCaP_Vancouver prostate cells were obtained from the Vancouver Prostate Cancer Centre.
Compounds were tested in duplicate. After 96 h incubation at 37° C., 5% CO2 25 μl ATP-glow mix was added. The plate was incubated for 30 min at 37° C. and luminescence was measured with the Envision.
as §1, §2

[4] = test system: A2780 ovarian cells; assay: A2780 Ovarian Cell Proliferation Assay in Lipid Reduced Medium, without Palmitate; settings: 10% lipid-reduced serum, no palmitate, 96 h, MTT
Method: as §3
2500 cells were seeded in a 96-well clear well plate in 200 μL RPM11640 with 10% Fetal Calf Serum (Hyclone), and incubated at 37° C., 5% CO2. Blanks were wells without cells. The next day the culture medium was aspirated and replaced by 160 μL culture medium with 10% Lipid-Reduced Serum (LRS, Hyclone). 20 μL test compound (at concentrations of 30 μM, 10 μM, 3 μM, 1 μM, 0.30 μM, 0.10 μM, 0.03 μM and 0.01 μM)/DMSO dilution followed by 20 μL ethanol-BSA solution were added to a final concentrations of 0.2% DMSO, 0.2% fatty-acid-free BSA, 0.25% ethanol. After 96 h incubation an MTT assay was performed.
Raw data generated by the instrument were normalized to % Controlmin values, which were calculated as: % Controlmin=100*(x−mLC)/(mHC−mLC)
where mLC and mHC were the means of the low control wells and high control wells on the plate, after manual exclusion of outliers. A plot of Controlmin versus test compound concentration was fitted to a 4-parameter logistic curve using a non-linear least squares regression method.

Compound: Cn1ncc2cc(-c3ccc(C4=NC(C)(C)C(=O)N4CC4CN(C(=O)C5CC5)C4)c(F)c3)ccc21 [Compound 69, 1-((1-(cyclopropanecarbonyl)azetidin-3-yl)methyl)-2-(2-fluoro-4-(1-methyl-1H-indazol-5-yl)phenyl)-4,4-dimethyl-1H-imidazol-5(4H)-one]
- pIC50 PC-3M-Luc-C6 prostate cell [1]: 7.04
- pIC50 With Palmitate [2]: <5
- pIC50 LNCaP_Vancouver prostate cell [3]: 6.87
- pIC50 Without Palmitate [4]: 7.19

Reference: patent publication US9718813B2, “Imidazolin-5-one derivative useful as FASN inhibitors for the treatment of cancer” (Janssen Pharmaceutica, NV, priority 2013, dated 2017)
